Experimental data as given in US11053219B2, “Substituted pyridines as TYK2 inhibitors” (FronThera U.S. Pharmaceuticals LLC, priority 2018, dated 2021).

What was measured:
[1] = Pharmacokinetic study in Sprague Dawley rats; format: in vivo; conditions: rat, plasma; for Vd: read-out: Vdss
Description: (§1) The pharmacokinetics of test compounds were evaluated in male C57BL/6 mice, Sprague Dawley rats, Beagle dogs, and cynomolgus monkeys when administered via oral gavage and IV injection. The animals were fasted overnight before administration. Plasma samples were collected predose and at 0.5, 1, 3, 6, 9, 12, and 24 hours postdose. The samples were analyzed by LC/MS/MS and the concentration of test compound at each timepoint was determined by linear regression. Pharmacokinetic parameters were calculated from the plasma concentrations using Pheonix WinNonlin.

[2] = molecular target: JAK1 (JH2 domain) (Homo sapiens (Human), UniProt P23458); test: JAK1 JH2 domain binding assay (KINOMEscan); conditions: KINOMEscan; read-out: JAK1 (JH2 domain) binding Kd
Description: (§6) The assay is performed by combining three components: DNA-tagged kinase; immobilized ligand; and a test compound. The ability of the test compound to compete with the immobilized ligand is measured via quantitative PCR of the DNA tag.
(§7) The liganded beads were blocked with excess biotin and washed with blocking buffer (SeaBlock (Pierce), 1% BSA, 0.05% Tween 20, 1 mM DTT) to remove unbound ligand and to reduce non-specific binding. […] Test compounds were prepared as 111× stocks in 100% DMSO. All test compounds were shipped to DiscoverX in DMSO with concentration of 10 mM. Kds were determined using an 11-point 3-fold compound dilution series with three DMSO control points. Each compound was tested in duplicate. […] The compounds were then diluted directly into the assays such that the final concentration of DMSO was 0.9%. All reactions performed in polypropylene 384-well plate. Each was a final volume of 0.02 ml. […] The kinase concentration in the eluates was measured by qPCR.
(§8) The amount of kinase measured by qPCR (Signal; y-axis) is plotted against the corresponding compound concentration in nM in log 10 scale (x-axis). Binding constants (Kds) were calculated with a standard dose-response curve using the Hill equation:
Similar to the method for TYK2 JH2 binding described above, JAK1 JH2 and JAK2 JH1 domain binding assay was performed using DiscoverX's KINOMEscan™, but with change of kinase domain.

[3] = test system: INFα induced pSTAT5 in human PBMC; test: INFα induced pSTAT5 in human PBMC; format: cell-based; conditions: human PBMC, INFα 5000 units/ml; read-out: p-STAT5 IC50
Description: Cells were seeded in a round bottom 96-well plate at the concentration of 200,000 cells/well. A 10-point dilution series of test compound (top dose 10 uM, 1:5 dilution) was added to the well using the liquid dispenser (Tecan D300e) and incubated for 1 hour at 37 C. Then human INFα recombinant protein (R&D Systems) was added to the well at the final concentration of 5000 units/ml and incubated for 15 minutes at 37 C. Cell lysates were prepared and analyzed by Phospho STAT3 (Tyr705) cellular kit (Cisbio) or Phospho STAT5 (Tyr693) Kit (Meso Scale Discovery) following manufacturer's protocol.
For calculation of the inhibition rate, the relative pSTAT signal of each well=pSTAT signal of each well−the average pSTAT signal of baseline. The inhibition %=(the average pSTAT signal of INFα treatment wells−the relative of pSTAT signal in each compound containing well)/the average pSTAT signal of INFα treatment wells*100%

[4] = test system: GM-CSF-induced pSTAT5 in human PBMC; test: GM-CSF-induced pSTAT5 in human PBMC; format: cell-based; conditions: GM-CSF 10 ng/ml
Description: (§2) Fresh Human PBMCs were resuspended in RPMI 1640 medium with 10% FBS. Cells were seeded in a round bottom 96-well plate at the concentration of 200,000 cells/well. A 10-point dilution series of test compound (top dose 10 uM, 1:5 dilution) was added to the well using the liquid dispenser (Tecan D300e) and incubated for 1 hour at 37 C. Then human IL-12 recombinant protein (R&D Systems) was added to the well at the final concentration of 10 ng/ml and incubated for 15 minutes at 37 C. Cell lysates were prepared and analyzed by Phospho STAT4 (Tyr693) Kit (Meso Scale Discovery) following manufacturer's protocol.
(§3) For calculation of the inhibition rate, the relative pSTAT4 signal of each well=pSTAT4 signal of each well−the average pSTAT4 signal of baseline. The inhibition %=(the average pSTAT4 signal of IL-12 treatment wells−the relative of pSTAT4 signal in each compound containing well)/the average pSTAT4 signal of IL-12 treatment wells*100%
(§4) The curve was plotted as the inhibition % (y-axis) vs. compounds concentration (x-axis) and was fitted with log(inhibitor) vs. normalized response—Variable slope by GraphPad Prism7.0. Control is BMS-986165:
(§5) Similar to the method for IL-12 induced pSTAT4 in human PBMC described above, these assays were performed to check if test compounds have cross-activity to JAK1. JAK2 and JAK3 pathways in human PBMC. The procedure is as described with change of stimuli to 10 ng/ml of GM-CSF or 20 ng/ml of IL-2.

[5] = Pharmacokinetic study in Beagle dogs; format: in vivo; conditions: dog, plasma; for Vd: read-out: Vdss
Description: as §1

[6] = molecular target: TYK2 (JH2 domain) (Homo sapiens (Human), UniProt P29597); test: TYK2 JH2 domain binding assay (DiscoverX KINOMEscan); conditions: 11-point 3-fold dilution, duplicate
Description: as §6, §7, §8
The Hill Slope was set to −1.
Curves were fitted using anon-linear least square fit with the Levenberg-Marquardt algorithm.

[7] = molecular target: JAK2 (JH1 domain) (Homo sapiens (Human), UniProt O60674); test: JAK2 JH1 domain binding assay (KINOMEscan)
[8] = Pharmacokinetic study in C57BL/6 mice; format: in vivo; set-up: AUC: unit not given here
Description: as §1

[9] = test system: IL-2-induced pSTAT5 in human PBMC; test: IL-2-induced pSTAT5 in human PBMC; format: cell-based; conditions: IL-2 20 ng/ml
Description: as §2, §3, §4, §5

[10] = Pharmacokinetic study in cynomolgus monkeys; format: in vivo; conditions: cynomolgus monkey, plasma
Description: as §1

[11] = Oral (5 mg/kg), read-out: C0 or Cmax (Cmax)
[12] = iv, I.V. (1 mg/kg), read-out: C0 or Cmax (C0)
[13] = Oral (2 mg/kg), read-out: C0 or Cmax (Cmax)
[14] = male, mouse, plasma, Oral (10 mg/kg)
[15] = male, mouse, plasma, iv, I.V. (2 mg/kg)
[16] = Oral (2 mg/kg), NA: no detectable

Chain of TYK2 (JH2 domain) (P29597 589-875): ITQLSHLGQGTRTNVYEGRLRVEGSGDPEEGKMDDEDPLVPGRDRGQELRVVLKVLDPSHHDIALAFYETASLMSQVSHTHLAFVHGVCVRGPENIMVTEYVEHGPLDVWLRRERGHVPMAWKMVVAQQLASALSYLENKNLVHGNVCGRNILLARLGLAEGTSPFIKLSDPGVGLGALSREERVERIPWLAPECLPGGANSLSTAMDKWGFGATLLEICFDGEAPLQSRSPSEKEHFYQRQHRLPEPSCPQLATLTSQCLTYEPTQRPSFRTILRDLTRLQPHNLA
Chain of JAK2 (JH1 domain) (O60674 849-1124): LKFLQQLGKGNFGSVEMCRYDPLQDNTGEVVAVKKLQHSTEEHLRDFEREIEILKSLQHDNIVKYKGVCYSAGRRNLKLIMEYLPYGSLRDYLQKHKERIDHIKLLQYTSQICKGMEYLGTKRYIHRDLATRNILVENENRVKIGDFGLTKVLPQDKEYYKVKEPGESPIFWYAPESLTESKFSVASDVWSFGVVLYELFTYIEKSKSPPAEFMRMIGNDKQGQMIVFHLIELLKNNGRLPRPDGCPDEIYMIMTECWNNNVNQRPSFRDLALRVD
Chain of JAK1 (JH2 domain) (P23458 583-855): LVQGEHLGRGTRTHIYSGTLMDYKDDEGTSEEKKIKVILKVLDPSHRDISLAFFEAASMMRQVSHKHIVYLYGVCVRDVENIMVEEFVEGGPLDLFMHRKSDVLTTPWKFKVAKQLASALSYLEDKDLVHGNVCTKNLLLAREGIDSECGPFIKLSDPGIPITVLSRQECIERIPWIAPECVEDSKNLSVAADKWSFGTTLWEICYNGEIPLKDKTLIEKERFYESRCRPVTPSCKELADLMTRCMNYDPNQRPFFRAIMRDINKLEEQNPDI

SMILES	AUC ([1]; Oral (5 mg/kg)) [ng·h/mL]	Tmax ([1]; Oral (5 mg/kg)) [h]	bioavailability ([1]; Oral (5 mg/kg)) [%]	half-life ([1]; Oral (5 mg/kg)) [h]	Cmax [1, 11] [ng/mL]	AUC ([1]; iv, I.V. (1 mg/kg)) [ng·h/mL]	clearance ([1]; iv, I.V. (1 mg/kg)) [mL/min/kg]	half-life ([1]; iv, I.V. (1 mg/kg)) [h]	Cmax [1, 12] [ng/mL]	Vd ([1]; iv, I.V. (1 mg/kg)) [L/kg]	Kd [2] [nM]	IC50 [3] [nM]	IC50 [4] [nM]	AUC ([5]; Oral (2 mg/kg)) [ng·h/mL]	Tmax ([5]; Oral (2 mg/kg)) [h]	bioavailability ([5]; Oral (2 mg/kg)) [%]	half-life ([5]; Oral (2 mg/kg)) [h]	Cmax [5, 13] [ng/mL]	AUC ([5]; iv, I.V. (1 mg/kg)) [ng·h/mL]	clearance ([5]; iv, I.V. (1 mg/kg)) [mL/min/kg]	further results
[2H]C([2H])([2H])CC(=O)c1cnc(Nc2ccc(C(C)(C)O)c(F)n2)cc1Nc1cccc(-c2ncn(C([2H])([2H])[2H])n2)c1OC [Example 202]	210 ± 60	4 ± 2	8.35 ± 2.4	1.29 ± 0.24	50.1 ± 11	504 ± 58	33.1 ± 4	0.323 ± 0.035	1980 ± 101	0.653 ± 0.03	< 100	< 100	100 to 1000	555 ± 154	1	55 ± 15	1.59 ± 0.15	156 ± 53	504 ± 49	32.7 ± 3.1	half-life ([5]; iv, I.V. (1 mg/kg)): 1.74 ± 0.28 h; Cmax [5, 12]: 469 ± 255 ng/mL; Vd ([5]; iv, I.V. (1 mg/kg)): 4.21 ± 0.19 L/kg; Kd [6]: ≤ 1 nM; Kd [7]: 100 to 1000 nM; AUC ([8]; I.V. (2 mg/kg)): 1911; AUC ([8]; Oral (10 mg/kg)): 6395; Tmax [8, 14]: 0.5 h; bioavailability [8, 14]: 66.6%; half-life [8, 14]: 3.27 h; Cmax ([8]; male, mouse, plasma, Oral (10 mg/kg), read-out: C0 or Cmax (Cmax)): 1900 ng/mL; clearance [8, 15]: 17.3 mL/min/kg; half-life [8, 15]: 0.97 h; Cmax ([8]; male, mouse, plasma, iv, I.V. (2 mg/kg), read-out: C0 or Cmax (C0)): 3340 ng/mL; Vd ([8]; male, mouse, plasma, iv, I.V. (2 mg/kg), read-out: Vdss): 0.785 L/kg; IC50 [9]: 100 to 1000 nM
[2H]C([2H])([2H])CC(=O)c1cnc(Nc2ccc(C(C)(C)O)c(F)n2)cc1Nc1nccc(-c2ncn(C([2H])([2H])[2H])n2)c1OC [Example 201]	499 ± 502	0.42 ± 0.14	18.7 ± 18.9	1.14 ± 0.2	185 ± 138	533 ± 225	34.3 ± 12	0.759 ± 0.6	1190 ± 116	1.31 ± 0.42	< 100	< 100	100 to 1000	442 ± 81	2	38.5 ± 7.1	5.05 ± 0.47	103 ± 28	575 ± 158	29.3 ± 8.01	half-life ([5]; iv, I.V. (1 mg/kg)): 4.54 ± 1.26 h; Cmax [5, 12]: 458 ± 336 ng/mL; Vd ([5]; iv, I.V. (1 mg/kg)): 7.41 ± 2.64 L/kg; Kd [6]: ≤ 1 nM; AUC [10, 16]: 67.9 ± 21 ng·h/mL; Tmax [10, 16]: 2.33 ± 1.5 h; bioavailability [10, 16]: 4.67 ± 1.5%; half-life [10, 16]: 3.08 ± 0.66 h; Cmax ([10]; Oral (2 mg/kg), NA: no detectable, read-out: C0 or Cmax (Cmax)): 13.9 ± 2 ng/mL; clearance ([10]; intravenous, printed on the Oral (2 mg/kg) line (probably belongs to I.V. 1 mg/kg)): 23.2 ± 4.3 mL/min/kg; Vd ([10]; intravenous, printed on the Oral (2 mg/kg) line (probably belongs to I.V. 1 mg/kg), read-out: Vdss): 1.47 ± 0.1 L/kg; AUC ([10]; iv, I.V. (1 mg/kg)): 726 ± 134 ng·h/mL; half-life ([10]; iv, I.V. (1 mg/kg)): 1.81 ± 0.76 h; Cmax [10, 12]: 849 ± 50 ng/mL; Kd [7]: 100 to 1000 nM; IC50 [9]: 100 to 1000 nM
